#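 These data come from cells grown in 96-well plates and exposed to compound for 48 hours at five concentrations. At the GI50, growth is halved. TGI: total growth inhibition.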
# How the values were obtained:
# Test in all cases: inhibition of tumour cell growth, NCI panel, 48 h
# [1] = tested on: HCC-2998 colon
# [2] = tested on: NCI-H522 lung
# [3] = tested on: COLO 205 colon
# [4] = tested on: NCI-H226 lung
# [5] = tested on: SK-MEL-2 melanoma
# [6] = tested on: NCI-H23 lung
# [7] = tested on: NCI/ADR-RES ovarian
# [8] = tested on: TK-10 renal
# [9] = tested on: HCT-116 colon
# [10] = tested on: NCI-H460 lung
# [11] = tested on: SW-620 colon
# [12] = tested on: M14 melanoma
# [13] = tested on: UO-31 renal
# [14] = tested on: ACHN renal
# [15] = tested on: A498 renal
# [16] = tested on: U251 CNS
# [17] = tested on: HS 578T breast
# [18] = tested on: SNB-75 CNS
# [19] = tested on: SR leukemia
# [20] = tested on: SK-MEL-28 melanoma
# [21] = tested on: IGROV1 ovarian
# [22] = tested on: DU-145 prostate
# [23] = tested on: SNB-19 CNS
# [24] = tested on: PC-3 prostate
# [25] = tested on: SF-539 CNS
# [26] = tested on: T-47D breast
# [27] = tested on: LOX IMVI melanoma
# [28] = tested on: MDA-MB-231 breast
# [29] = tested on: MCF7 breast
# [30] = tested on: UACC-257 melanoma
# [31] = tested on: A549 NSCLC
# [32] = tested on: HT29 colon
# [33] = tested on: MOLT-4 leukemia
# [34] = tested on: UACC-62 melanoma
# [35] = tested on: OVCAR-3 ovarian
# [36] = tested on: MALME-3M melanoma
# [37] = tested on: HL-60(TB) leukemia
# [38] = tested on: MDA-MB-435
# [39] = tested on: SF-268 CNS
# [40] = tested on: SK-OV-3 ovarian
# [41] = tested on: SF-295 CNS
# [42] = tested on: CCRF-CEM leukemia
# [43] = tested on: K-562 leukemia
# [44] = tested on: SK-MEL-5 melanoma
# [45] = tested on: BT-549 breast
# [46] = tested on: SN12C renal
# [47] = tested on: CAKI-1 renal
# [48] = tested on: RXF 393 renal
# [49] = tested on: OVCAR-4 ovarian
# [50] = tested on: HCT-15 colon
# [51] = tested on: OVCAR-5 ovarian
# [52] = tested on: EKVX NSCLC
# [53] = tested on: 786-0 renal
# [54] = tested on: OVCAR-8 ovarian
# [55] = tested on: HOP-62 NSCLC
# [56] = tested on: KM12 colon
compound,measurement,setting,value
Oc1ccc(/C=C/c2ccc(O)cc2)cc1,GI50,[1],3.59 µM
same,TGI,[1],18 µM
same,GI50,[2],465 nM
same,TGI,[2],1710 nM
same,GI50,[3],> 55.1 µM
same,TGI,[3],> 100 µM
same,GI50,[4],5.63 µM
same,TGI,[4],> 100 µM
same,GI50,[5],9.79 µM
same,TGI,[5],> 89.2 µM
same,GI50,[6],3.82 µM
same,TGI,[6],> 90.5 µM
same,GI50,[7],3.25 µM
same,TGI,[7],> 95.4 µM
same,GI50,[8],9.62 µM
same,TGI,[8],> 100 µM
same,GI50,[9],4.28 µM
same,TGI,[9],> 100 µM
same,GI50,[10],3.37 µM
same,TGI,[10],> 100 µM
same,GI50,[11],7.52 µM
same,TGI,[11],> 100 µM
same,GI50,[12],3.82 µM
same,TGI,[12],58.9 µM
same,GI50,[13],1380 nM
same,TGI,[13],> 100 µM
same,GI50,[14],1250 nM
same,TGI,[14],> 61.7 µM
same,GI50,[15],10.3 µM
same,TGI,[15],99.6 µM
same,GI50,[16],3.09 µM
same,TGI,[16],> 100 µM
same,GI50,[17],4.09 µM
same,TGI,[17],> 83.9 µM
same,GI50,[18],1890 nM
same,TGI,[18],> 100 µM
same,GI50,[19],204 nM
same,TGI,[19],703 nM
same,GI50,[20],30.1 µM
same,TGI,[20],> 100 µM
same,GI50,[21],720 nM
same,GI50,[22],3.84 µM
same,TGI,[22],44 µM
same,GI50,[23],18.2 µM
same,TGI,[23],> 100 µM
same,GI50,[24],4.02 µM
same,TGI,[24],> 100 µM
same,GI50,[25],2450 nM
same,TGI,[25],8.8 µM
same,GI50,[26],5.7 µM
same,TGI,[26],> 100 µM
same,GI50,[27],2850 nM
same,TGI,[27],20.4 µM
same,GI50,[28],2780 nM
same,TGI,[28],> 100 µM
same,GI50,[29],4.41 µM
same,TGI,[29],> 100 µM
same,GI50,[30],18.6 µM
same,TGI,[30],> 100 µM
same,GI50,[31],2690 nM
same,TGI,[31],> 38.5 µM
same,GI50,[32],29 µM
same,TGI,[32],> 100 µM
same,GI50,[33],2180 nM
same,TGI,[33],45.1 µM
same,GI50,[34],2360 nM
same,TGI,[34],16.9 µM
same,GI50,[35],971 nM
same,TGI,[35],> 92.1 µM
same,GI50,[36],18.1 µM
same,TGI,[36],> 100 µM
same,GI50,[37],252 nM
same,TGI,[37],738 nM
same,GI50,[38],6.64 µM
same,TGI,[38],> 100 µM
same,GI50,[39],2150 nM
same,TGI,[39],> 94.7 µM
same,GI50,[40],16.1 µM
same,TGI,[40],> 100 µM
same,GI50,[41],5.91 µM
same,TGI,[41],> 84.7 µM
same,GI50,[42],219 nM
same,TGI,[42],761 nM
same,GI50,[43],2650 nM
same,TGI,[43],> 100 µM
same,GI50,[44],3.04 µM
same,TGI,[44],> 68.3 µM
same,GI50,[45],1260 nM
same,TGI,[45],> 90 µM
same,GI50,[46],2970 nM
same,TGI,[46],> 100 µM
same,GI50,[47],3.5 µM
same,TGI,[47],> 24.1 µM
same,GI50,[48],2940 nM
same,TGI,[48],> 100 µM
same,GI50,[49],8.78 µM
same,TGI,[49],> 100 µM
same,GI50,[50],3.13 µM
same,TGI,[50],> 100 µM
same,GI50,[51],28.9 µM
same,TGI,[51],> 100 µM
same,GI50,[52],9.15 µM
same,TGI,[52],> 100 µM
same,GI50,[53],2170 nM
same,TGI,[53],7.93 µM
same,GI50,[54],2440 nM
same,TGI,[54],> 61.1 µM
same,GI50,[55],5.59 µM
same,TGI,[55],> 96.5 µM
same,GI50,[56],2730 nM
same,TGI,[56],> 80.7 µM

# Reference: PubChem BioAssay (NCI)
